Experimental data published in PubChem BioAssay AID1963835 (Molecular Pharmacology Branch, DTP, NCI, 2024).

Test system: 699152-130-R-J1-PDC complex spheroid viability
Assay: Anticancer human tumor 699152-130-R-J1-PDC patient-derived pancreatic carcinoma cell line growth inhibition [POLQ]
Conditions: for IC50: curve of first compound; for viability, T/C: stronger effect = lower value
Procedure, shortened: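 Complex spheroid viability model combining PDC tumour cells with endothelial (HUVEC) and MSC stromal cells. Novobiocin, ART-558 or RP6685 were tested singly and in combination with standard and investigational anticancer drugs. Each was titrated in half-log steps from near clinical Cmax, or from 10 microM where Cmax was unknown.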

[1] = second compound 0.0316 µM, first compound 0.0316 µM
[2] = second compound 0.0316 µM, first compound 0.1 µM
[3] = second compound 0.0316 µM, first compound 0.316 µM
[4] = second compound 0.0316 µM, first compound 1 µM
[5] = second compound 0.0316 µM, first compound 3.16 µM
[6] = second compound 0.0316 µM, first compound 10 µM
[7] = second compound 0.1 µM, first compound 0.0316 µM
[8] = second compound 0.1 µM, first compound 0.1 µM
[9] = second compound 0.1 µM, first compound 0.316 µM
[10] = second compound 0.1 µM, first compound 1 µM
[11] = second compound 0.1 µM, first compound 3.16 µM
[12] = second compound 0.1 µM, first compound 10 µM
[13] = second compound 0.316 µM, first compound 0.0316 µM
[14] = second compound 0.316 µM, first compound 0.1 µM
[15] = second compound 0.316 µM, first compound 0.316 µM
[16] = second compound 0.316 µM, first compound 1 µM
[17] = second compound 0.316 µM, first compound 3.16 µM
[18] = second compound 0.316 µM, first compound 10 µM
[19] = second compound 1 µM, first compound 0.0316 µM
[20] = second compound 1 µM, first compound 0.1 µM
[21] = second compound 1 µM, first compound 0.316 µM
[22] = second compound 1 µM, first compound 1 µM
[23] = second compound 1 µM, first compound 3.16 µM
[24] = second compound 1 µM, first compound 10 µM
[25] = second compound 3.16 µM, first compound 0.0316 µM
[26] = second compound 3.16 µM, first compound 0.1 µM
[27] = second compound 3.16 µM, first compound 0.316 µM
[28] = second compound 3.16 µM, first compound 1 µM
[29] = second compound 3.16 µM, first compound 3.16 µM
[30] = second compound 3.16 µM, first compound 10 µM
[31] = second compound 10 µM, first compound 0.0316 µM
[32] = second compound 10 µM, first compound 0.1 µM
[33] = second compound 10 µM, first compound 0.316 µM
[34] = second compound 10 µM, first compound 1 µM
[35] = second compound 10 µM, first compound 3.16 µM
[36] = second compound 10 µM, first compound 10 µM
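Note: spheroids exposed to agents for 7 days before viability reading.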
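Throughout, for viability, T/C: percent of DMSO vehicle control viability so 100% = vehicle and 0% = no viable signal.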

Compound: CC(C)n1c(=O)n(C)c2cnc3cc(F)c(-c4ccc(OCCCN5CCCCC5)nc4)cc3c21 + Nc1ccc(C#CCN(C(=O)Cc2ncc(C(F)(F)F)cc2C(F)(F)F)c2ccc(F)cc2)nn1
- IC50 (second compound 0.0316 µM): > 10000 nM
- IC50 (second compound 0.1 µM): > 10000 nM
- IC50 (second compound 0.316 µM): > 10000 nM
- IC50 (second compound 1 µM): > 10000 nM
- IC50 (second compound 3.16 µM): > 10000 nM
- IC50 (second compound 10 µM): > 10000 nM
- viability, T/C [1]: 88.5%
- viability, T/C [2]: 111%
- viability, T/C [3]: 93.5%
- viability, T/C [4]: 97.9%
- viability, T/C [5]: 104%
- viability, T/C [6]: 96.8%
- viability, T/C [7]: 118%
- viability, T/C [8]: 103%
- viability, T/C [9]: 106%
- viability, T/C [10]: 108%
- viability, T/C [11]: 101%
- viability, T/C [12]: 86.9%
- viability, T/C [13]: 98.1%
- viability, T/C [14]: 105%
- viability, T/C [15]: 103%
- viability, T/C [16]: 116%
- viability, T/C [17]: 104%
- viability, T/C [18]: 89.5%
- viability, T/C [19]: 109%
- viability, T/C [20]: 93.6%
- viability, T/C [21]: 103%
- viability, T/C [22]: 111%
- viability, T/C [23]: 106%
- viability, T/C [24]: 89%
- viability, T/C [25]: 116%
- viability, T/C [26]: 98.2%
- viability, T/C [27]: 112%
- viability, T/C [28]: 118%
- viability, T/C [29]: 108%
- viability, T/C [30]: 86.2%
- viability, T/C [31]: 116%
- viability, T/C [32]: 119%
- viability, T/C [33]: 121%
- viability, T/C [34]: 113%
- viability, T/C [35]: 112%
- viability, T/C [36]: 91.9%

Compound: CC[C@@]1(O)C(=O)OCc2c1cc1n(c2=O)Cc2cc3c(CN(C)C)c(O)ccc3nc2-1 + Cc1cccc(N(C)C(=O)C2C(O)CCN2c2nc(C)cc(C(F)(F)F)c2C#N)c1
- IC50 (second compound 0.0316 µM): > 100 nM
- IC50 (second compound 0.1 µM): > 100 nM
- IC50 (second compound 0.316 µM): > 100 nM
- IC50 (second compound 1 µM): > 100 nM
- IC50 (second compound 3.16 µM): > 100 nM
- IC50 (second compound 10 µM): > 100 nM
- viability, T/C (second compound 0.0316 µM, first compound 0.000316 µM): 104%
- viability, T/C (second compound 0.0316 µM, first compound 0.001 µM): 118%
- viability, T/C (second compound 0.0316 µM, first compound 0.00316 µM): 95.4%
- viability, T/C (second compound 0.0316 µM, first compound 0.01 µM): 90.2%
- viability, T/C [1]: 81.3%
- viability, T/C [2]: 67.3%
- viability, T/C (second compound 0.1 µM, first compound 0.000316 µM): 103%
- viability, T/C (second compound 0.1 µM, first compound 0.001 µM): 103%
- viability, T/C (second compound 0.1 µM, first compound 0.00316 µM): 91%
- viability, T/C (second compound 0.1 µM, first compound 0.01 µM): 112%
- viability, T/C [7]: 82.5%
- viability, T/C [8]: 58.2%
- viability, T/C (second compound 0.316 µM, first compound 0.000316 µM): 101%
- viability, T/C (second compound 0.316 µM, first compound 0.001 µM): 99.2%
- viability, T/C (second compound 0.316 µM, first compound 0.00316 µM): 116%
- viability, T/C (second compound 0.316 µM, first compound 0.01 µM): 93.6%
- viability, T/C [13]: 76.4%
- viability, T/C [14]: 63.2%
- viability, T/C (second compound 1 µM, first compound 0.000316 µM): 111%
- viability, T/C (second compound 1 µM, first compound 0.001 µM): 97.5%
- viability, T/C (second compound 1 µM, first compound 0.00316 µM): 111%
- viability, T/C (second compound 1 µM, first compound 0.01 µM): 99.9%
- viability, T/C [19]: 81.2%
- viability, T/C [20]: 58.7%
- viability, T/C (second compound 3.16 µM, first compound 0.000316 µM): 99.7%
- viability, T/C (second compound 3.16 µM, first compound 0.001 µM): 106%
- viability, T/C (second compound 3.16 µM, first compound 0.00316 µM): 112%
- viability, T/C (second compound 3.16 µM, first compound 0.01 µM): 97.5%
- viability, T/C [25]: 80.5%
- viability, T/C [26]: 64.1%
- viability, T/C (second compound 10 µM, first compound 0.000316 µM): 102%
- viability, T/C (second compound 10 µM, first compound 0.001 µM): 105%
- viability, T/C (second compound 10 µM, first compound 0.00316 µM): 95.6%
- viability, T/C (second compound 10 µM, first compound 0.01 µM): 91.8%
- viability, T/C [31]: 85.5%
- viability, T/C [32]: 68.8%

Compound: C#Cc1c(F)ccc2cc(O)cc(-c3ncc4c(N5CC6CCC(C5)N6)nc(OCC56CCCN5CC(F)C6)nc4c3F)c12 (stereo unspecified) + Cc1cccc(N(C)C(=O)C2C(O)CCN2c2nc(C)cc(C(F)(F)F)c2C#N)c1
- IC50 (second compound 0.0316 µM): < 31.6 nM
- IC50 (second compound 0.1 µM): < 31.6 nM
- IC50 (second compound 0.316 µM): < 31.6 nM
- IC50 (second compound 1 µM): < 31.6 nM
- IC50 (second compound 3.16 µM): < 31.6 nM
- IC50 (second compound 10 µM): < 31.6 nM
- viability, T/C [1]: 27.9%
- viability, T/C [2]: 17.8%
- viability, T/C [3]: 22.6%
- viability, T/C [4]: 13.8%
- viability, T/C [5]: 12.4%
- viability, T/C [6]: 12.1%
- viability, T/C [7]: 25.5%
- viability, T/C [8]: 16.7%
- viability, T/C [9]: 15.5%
- viability, T/C [10]: 13.2%
- viability, T/C [11]: 13.8%
- viability, T/C [12]: 13.1%
- viability, T/C [13]: 26.9%
- viability, T/C [14]: 18.4%
- viability, T/C [15]: 14.5%
- viability, T/C [16]: 13.8%
- viability, T/C [17]: 14.6%
- viability, T/C [18]: 12.4%
- viability, T/C [19]: 21.9%
- viability, T/C [20]: 20.6%
- viability, T/C [21]: 15.3%
- viability, T/C [22]: 13.2%
- viability, T/C [23]: 15.1%
- viability, T/C [24]: 13.8%
- viability, T/C [25]: 22.9%
- viability, T/C [26]: 17.1%
- viability, T/C [27]: 17.4%
- viability, T/C [28]: 16.5%
- viability, T/C [29]: 15.2%
- viability, T/C [30]: 12.8%
- viability, T/C [31]: 21.5%
- viability, T/C [32]: 18.4%
- viability, T/C [33]: 17.1%
- viability, T/C [34]: 14.3%
- viability, T/C [35]: 13.4%
- viability, T/C [36]: 15.3%
